# In patent US9265771B2, “Method for treating Lyme disease” (Zoetis Services LLC, priority 2012, dated 2016):
# Read-outs that look alike come from different tables or passages of the source.
# Tests used:
# B. burgdorferi [1] = test: Study B: SNAP-4Dx ELISA in tick-infected dogs; format: in vivo, beagle dogs; conditions: for SNAP-4Dx Positives, Number of Dogs: N = 8/group
# From the text: Three outer surface proteins (Osp) on B. burgdorferi are important for diagnosis and prevention, and are expressed by the organism in response to its local environment. […] OspF is another surface protein that is generally observed in late-stage disease. The C in […] refers to a 25-amino acid, C6 peptide in the sixth invariable region of an outer membrane lipoprotein (VIsE). Antibody against C6 is highly accurate as a serologic diagnosis of Lyme disease independent of a subject's (e.g., canine) vaccination status. Further, the generation of C6 antibodies implies an active infection with viable spirochetes. Serological methods for detecting B. burgdorfer/Lyme disease were conducted using the IDEXX qualitative SNAP-4Dx ELISA and the Quantitative C6 (Quant C6 or QC6) diagnostic kits, which are enzyme linked immunosorbent assays against the previously described 25-amino-acid C6 peptide. QC6 ELISA data, units/mL, are useful for guidance in initiating and evaluating response to therapy (See Levy S A, O'Connor T P, Hanscom J L, Shields P, et al. Quantitative measurement of a C6 antibody following antibiotic treatment of Borrelia burgdorferi antibody-positive, nonclinical dogs. Clin Vacc Immunol 2008; 15(1):115-119 and Littman M P, Goldstein R E, Labato M A, et al. ACVIM Small Animal Concensus Statement on Lyme Disease in Dogs: Diagnosis, Treatment and Prevention. J Vet Intern Med 2006; 20: 422-434).
# Thirty-two (18 male and 14 female) beagle dogs were sero-negative for Borrelia burgdorferi, not vaccinated with any Borrelia spp vaccines, and acclimated at the study facility for seven days. The study was conducted under National Research Council guidelines (1996). […] Field-caught Ixodes from the northeast USA were placed on the dogs without containment chambers for 10 days; after ticks fed to repletion, dogs were treated with two applications of an approved topical acaricide with a 30-day interval between applications.
# Forty days post-challenge, and prior to antibiotic treatments, blood was collected from each dog as were two skin biopsy punch samples near tick attachment sites. Blood was collected approximately monthly post-treatment. Skin biopsies were taken near the tick attachment site on Days 48/49, 118, 146, 180, and 315. Serum antibodies to Borrelia were assayed using the IDEXX SNAP-4Dx and QC6 ELISA. In cooperation with Cornell University, serum samples were analyzed using fluorescent-bead-based multiplex assays detecting antibodies against B. burgdorferi outer surface proteins OspA, OspC, and OspF. Data were expressed as median fluorescent intensities (MFI), and shown to be specific and sensitive to provide interpretative guidelines regarding infection. The skin biopsies were collected for a polymerase chain reaction (PCR; FlaB) assay and cultured for spirochete detection. At the end of the study, blood and skin biopsies were collected and synovial tissue from the joints were harvested at necropsy.
# On Day 75 and Day 89 Convenia was administered to the eight dogs in T04 (8 mg/kg bodyweight; subcutaneous injection). The other treated groups received their respective regimens daily and orally for 30 days from Days 75 to 104. […] Dogs in T01 served as infected, untreated, controls. Inter-treatment comparisons to evaluate antibiotic efficacy included clinical signs, serology, culture results and pathology.
# [2] = feline; cited from earlier work
# [3] = following subcutaneous injection; cited from earlier work
# B. burgdorferi [4] = test: Study A: joint culture and microscopic pathology of joints and skin; format: in vivo, beagle dogs
# Description: Comparisons included serology, skin culture results and joint pathology.
# Ten joints from each dog were cultured for spirochetes and examined microscopically for changes. Joints included carpus, elbow, shoulder, stifle and tarsus on both the right and left, front and rear limbs. Skin sections were also examined for Lyme disease related changes (pathology). There were six joints from untreated dogs that cultured positive for spirochetes compared to none from dogs treated with Convenia. Microscopically, all untreated, infected dogs had skin sections with inflammatory and other changes as described for Lyme disease, whereas six of eight (75%) treated dogs had similar findings. With the exception of one treated dog with all joints free of pathology, all other dogs had at least two joints showing Lyme disease changes. Despite the microscopic findings, definitively attributing joint pathology to infection or amelioration of pathology as a result of Convenia therapy was equivocal.
# [5] = canine; cited from earlier work
# B. burgdorferi [6] = test: Study A: SNAP-4Dx ELISA in tick-infected dogs; format: in vivo, beagle dogs; conditions: N=8
# From the text: Three outer surface proteins (Osp) on B. burgdorferi are important for diagnosis and prevention, and are expressed by the organism in response to its local environment. […] OspF is another surface protein that is generally observed in late-stage disease. The C in […] refers to a 25-amino acid, C6 peptide in the sixth invariable region of an outer membrane lipoprotein (VIsE). Antibody against C6 is highly accurate as a serologic diagnosis of Lyme disease independent of a subject's (e.g., canine) vaccination status. Further, the generation of C6 antibodies implies an active infection with viable spirochetes. Serological methods for detecting B. burgdorfer/Lyme disease were conducted using the IDEXX qualitative SNAP-4Dx ELISA and the Quantitative C6 (Quant C6 or QC6) diagnostic kits, which are enzyme linked immunosorbent assays against the previously described 25-amino-acid C6 peptide. […]
# Twenty-three adult female beagle dogs were used in this study; all were sero-negative for Borrelia, not vaccinated with any Borrelia spp vaccines, and acclimated at the study facility for seven days prior to any study activities. […] Dogs were monitored 21-days post-challenge for pyrexia, and the entire post-challenge period for clinical signs of Lyme disease (lameness, ataxia, anorexia, lymphadenopathy and depression). […]
# B. burgdorferi [7] = test: Study A: bacterial culture of skin biopsy samples for spirochetes; format: in vivo, beagle dogs
# Description: Twenty-three adult female beagle dogs were used in this study; all were sero-negative for Borrelia, not vaccinated with any Borrelia spp vaccines, and acclimated at the study facility for seven days prior to any study activities. The study was conducted under National Research Council guidelines (1996. Dogs were randomized to a non-infected control (n=7 dogs) group, or infected groups (n=8 dogs/region) using ticks from two regions of the USA, Region A (New England (NE), i.e., Rhode Island) and Region B (Midwest (MW), i.e., Wisconsin). Dogs were infected on Day 0 with up to 30 Ixodes scapularis ticks per dog. Tick attachment was monitored daily and after nine days, remaining ticks were harvested and all dogs were treated with two topical applications of an approved acaricide observing a 30-day interval between applications. Dogs were monitored 21-days post-challenge for pyrexia, and the entire post-challenge period for clinical signs of Lyme disease (lameness, ataxia, anorexia, lymphadenopathy and depression).
# Blood was collected from each dog weekly to Day 28, then every two-weeks for the remainder of the study (166 days). […] Two skin punch biopsies were collected near tick attachment sites from each dog every 28 days post-challenge for bacterial culture.
# On Days 83 and 97, Convenia was administered (8 mg/kg bodyweight; subcutaneous injection). Treated dogs, 8 B. burgdorferi-positive and 4 controls, were compared to untreated cohorts (8 B. burgdorferi-positive, and 3 controls). Comparisons included serology, skin culture results and joint pathology.
# [8] = prior to treatment, of eight dogs
structure (smiles),measurement,setting,value
"CO/N=C(\C(=O)N[C@@H]1C(=O)N2C(C(=O)[O-])=C([C@@H]3CCCO3)CS[C@H]12)c1csc(N)n1.[Na+] [Convenia, (6R,7R)-7-[[(2Z)-(2-amino-4-thiazolyl)(methoxyimino)acetyl]-amino]-8-oxo-3-[(2S)-tetrahydro-2-furanyl]-5-thia-1-azabicyclo[4.2.0]oct-2-ene-2-carboxylic acid, monosodium salt]","SNAP-4Dx Positives, Number of Dogs",B. burgdorferi [1]; Day 48 (pre-treatment; antibiotics from Day 75),6
same,"SNAP-4Dx Positives, Number of Dogs",B. burgdorferi [1]; Day 111,5
same,"SNAP-4Dx Positives, Number of Dogs",B. burgdorferi [1]; Day 145,1
same,"SNAP-4Dx Positives, Number of Dogs",B. burgdorferi [1]; Day 179,2
same,"SNAP-4Dx Positives, Number of Dogs",B. burgdorferi [1]; Day 221,0
same,"SNAP-4Dx Positives, Number of Dogs",B. burgdorferi [1]; Day 251,0
same,"SNAP-4Dx Positives, Number of Dogs",B. burgdorferi [1]; Day 281,0
same,"SNAP-4Dx Positives, Number of Dogs",B. burgdorferi [1]; Day 315,0
same,"SNAP-4Dx Positives, Number of Dogs",B. burgdorferi [1]; Day −15 (pre-infection),0
same,SNAP-4Dx positive dogs,B. burgdorferi [1]; rest of the study after Day 179,none positive
same,Elimination half-life,[2],~166 h
same,Absorption,[3],rapidly and completely absorbed
same,Number of treated dogs with all joints free of pathology,"B. burgdorferi [4]; dog, in vivo",one
same,Number of treated dogs with skin sections with inflammatory and other changes as described for Lyme disease,B. burgdorferi [4]; of eight treated infected dogs,six
same,Treated dogs with skin sections with inflammatory and other changes as described for Lyme disease,B. burgdorferi [4]; of eight treated infected dogs,75%
same,Joints that cultured positive for spirochetes,"B. burgdorferi [4]; ten joints per dog, six in untreated dogs",none
same,Grade of inflammatory changes in joints,B. burgdorferi [4]; untreated dogs: moderate to marked,none to mild
same,Elimination half-life,[5],about 133 hours
same,Dogs SNAP-4Dx positive for B. burgdorferi,B. burgdorferi [6]; prior to administration of Convenia on Day 83,100%
same,Number of dogs remaining SNAP-4Dx positive,"B. burgdorferi [6]; through the study (Day 166), 8 mg/kg sc Days 83 and 97",five to seven
same,Bacterial culture of skin for spirochetes,"B. burgdorferi [7]; post-treatment (Days 111 to 166), 8 mg/kg sc Days 83 and 97",all were negative on bacterial culture
same,Dogs culture-positive for spirochetes from skin,B. burgdorferi [7]; [8],88%
same,Number of dogs culture-positive for spirochetes from skin,B. burgdorferi [7]; [8],Seven
